This passage reports Bliss excess results from the supplement of paper PMC11061612.

Common to all, as to assay: Bliss excess, mean over the matrix (fraction); higher = more synergy
Experiment [1] concerns EJM (Plasma Cell Myeloma). Summed up:
(§1)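 After 24 hours at 37°C and 5% CO2 in 1536-well plates, cells in DMEM/F12 or RPMI plus 10% FBS received two-drug dose matrices for 72 hours. Viability came from CellTiter-Glo 2.0 luminescence and was scaled as inhibition, anchored at 0 by vehicle wells and at 1 by blank wells. Combination Emax is taken as the second-highest inhibition in the matrix, and Bliss excess as the observed combination effect less EA + EB − EA·EB, with EA and EB the single-agent effects.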

Experiment [2] has as its system DU-145 (Prostate Carcinoma). A digest of the protocol: as §1
The test system of experiment [3] is NCI-H1355 (Lung Adenocarcinoma). A digest of the protocol: as §1
Experiment [4] deals with EFO-21 (Ovarian Carcinoma). A digest of the protocol: as §1
Experiment [5] has as its system ML-2 (Acute Myeloid Leukemia). Summed up:
as §1

Experiment [6] has as its system HCC1937 (Breast Carcinoma). A digest of the protocol: as §1
Experiment [7] deals with Mo-T (Other Blood Carcinomas). Summed up:
as §1

Experiment [8] relates to KMRC-1 (Kidney Carcinoma). A digest of the protocol:
as §1

The test system of experiment [9] is MOLT-4 (T-Lymphoblastic Leukemia). A digest of the protocol: as §1
In experiment [10] the test system is SK-N-AS (Neuroblastoma). A digest of the protocol:
as §1

The test system of experiment [11] is EW-1 (Ewing's Sarcoma). Summed up: as §1
The subject of experiment [12] is MDA-MB-453 (Breast Carcinoma). Summed up: as §1
The subject of experiment [13] is OE33 (Esophageal Adenocarcinoma). A digest of the protocol: as §1
In experiment [14] the test system is NCI-H1993 (Lung Adenocarcinoma). A digest of the protocol:
as §1

Experiment [15] concerns NCI-H522 (Lung Adenocarcinoma). A digest of the protocol:
as §1

Experiment [16] has as its system SW982 (Other Solid Carcinomas). Summed up:
as §1

Experiment [17] has as its system NCI-H1092 (Small Cell Lung Carcinoma). A digest of the protocol:
as §1

In experiment [18] the test system is HCC1500 (Breast Carcinoma). A digest of the protocol:
as §1

For experiment [19], the system named is ME-180 (Cervical Carcinoma). Summed up:
as §1

Experiment [20] deals with MV-4-11 (Acute Myeloid Leukemia). Summed up:
as §1

Regarding `Cc1c2c(nn1C)CSCc1cc(n(C)n1)CSc1cc(c3ccccc3c1)OCCCc1c(C(=O)O)n(C)c3c-2c(Cl)ccc13` [AZD5991] + C[C@@H]1COCCN1C2=NC(=NC(=C2)C3(CC3)[S@](=N)(=O)C)C4=C5C=CNC5=NC=C4 [AZD6738] (first compound max 1 µM, 7x7, partner max 10 µM), the Bliss excess in [1] was 0.0277; in experiment [2] it was 0.0122; in [3], 0.0264; in experiment [4] it was 0.016; in experiment [5], -0.0999; in experiment [6] it was 0.061. Besides, the Bliss excess in [7] is 0.0152; in [8], 0.0201; in experiment [9], 0.0318; in experiment [10] it was -0.0034; in experiment [11], 0.0344; in experiment [12], 0.0525. For the same compound, the Bliss excess was -0.0688 in experiment [13]; -0.0216 in experiment [14]; 0.0595 in [15]; -0.0086 in [16]; 0.0651 in [17]; 0.105 in [18]. The results for the Bliss excess in [19] and in experiment [20] were 0.0329 and 0.0008, respectively.

In the case of `Cc1c2c(nn1C)CSCc1cc(n(C)n1)CSc1cc(c3ccccc3c1)OCCCc1c(C(=O)O)n(C)c3c-2c(Cl)ccc13` [AZD5991] + C[C@@H](Nc1cc(F)cc(F)c1)c1cc(C(=O)N(C)C)cc2c(=O)cc(N3CCOCC3)oc12 [AZD8186] (first compound max 1 µM, 7x7, partner max 3 µM), the Bliss excess is -0.0129 in experiment [1]; -0.0204 in [2]; -0.064 in experiment [3]; -0.0522 in experiment [4]; -0.0218 in experiment [5]; -0.0001 in experiment [6]. The Bliss excess in experiment [7] is -0.0239; in [8] it was -0.0264; in experiment [9], 0.0193; in experiment [10], -0.0122; in experiment [11], -0.0431; in experiment [12], -0.0506. The Bliss excess is -0.0003 in experiment [13]; 0.0246 in experiment [14]; 0.0196 in experiment [15]; -0.0261 in [16]; 0.0172 in experiment [17]; 0.0182 in experiment [18]. Further, the Bliss excess in [19] was -0.0244; in experiment [20], 0.0375.

Turning to `Cc1c2c(nn1C)CSCc1cc(n(C)n1)CSc1cc(c3ccccc3c1)OCCCc1c(C(=O)O)n(C)c3c-2c(Cl)ccc13` [AZD5991] + Cc1cc2ncnn2cc1Nc1ncc2c(n1)n(C1CCOCC1)c(=O)n2C [AZD7648] (first compound max 1 µM, 7x7, partner max 10 µM), the Bliss excess is 0.0164 in experiment [1]; -0.0307 in experiment [2]; -0.0055 in [3]; -0.116 in experiment [4]; -0.0314 in experiment [5]; -0.015 in [6]. Also, the Bliss excess is -0.08 in [7]; -0.0161 in [8]; -0.0072 in experiment [9]; -0.0554 in [10]; -0.0108 in [11]; -0.0328 in [12]. In addition, the Bliss excess in experiment [13] is -0.0304; in experiment [14] it was -0.0225; in [15] it was -0.0586; in [16] it was -0.0232; in [17], -0.0458; in experiment [18], -0.0471. Besides, the results for the Bliss excess in experiment [19] and in experiment [20] were -0.009 and -0.0151, respectively.

Take `C[C@@H]1COCCN1c1cc(C2([S@](C)(=N)=O)CC2)nc(-c2ccnc3[nH]ccc23)n1` [AZD6738] + O=C(c1cc(Cc2n[nH]c(=O)c3ccccc23)ccc1F)N1CCN(C(=O)C2CC2)CC1 [Olaparib] (first compound max 10 µM, 7x7, partner max 10 µM): the Bliss excess is -0.0078 in experiment [1]; 0.0008 in [2]; -0.0357 in experiment [3]; -0.0375 in [4]; -0.0667 in experiment [5]; -0.0665 in [6]. The Bliss excess in experiment [7] was 0.0311; in experiment [8], 0.0003; in experiment [9] it was 0.0556; in experiment [10] it was 0.0223; in [11] it was 0.0174; in experiment [12], -0.0764. Moreover, the Bliss excess is -0.0384 in experiment [13]; 0.033 in experiment [14]; 0.0229 in experiment [15]; -0.0202 in experiment [16]; -0.0333 in experiment [17]; 0.0412 in experiment [18]. For the same compound, the Bliss excess is 0.0056 in experiment [19] and -0.0566 in experiment [20].

For `NC1(C(=O)N[C@@H](CCO)c2ccc(Cl)cc2)CCN(c2ncnc3[nH]ccc23)CC1` [Capivasertib] + CC(=O)c1c(C)c2cnc(Nc3ccc(N4CCNCC4)cn3)nc2n(C2CCCC2)c1=O [Palbociclib] (first compound max 10 µM, 7x7, partner max 10 µM), the Bliss excess in experiment [1] was -0.0189; in experiment [2], -0.0272; in experiment [3], 0.0107; in [4], -0.0533; in [5], -0.0354; in [6], -0.0236. The Bliss excess in experiment [7] was -0.0271; in [8] it was -0.0272; in experiment [9], -0.0002; in [10], -0.0033; in experiment [11] it was -0.0124; in [12] it was 0.0753. Besides, the Bliss excess in experiment [13] was -0.0055; in experiment [14], 0.0642; in [15] it was -0.0696; in [16], -0.0523; in experiment [17], -0.0612; in experiment [18], 0.0017. In addition, the Bliss excess in experiment [19] was -0.0638; in experiment [20], -0.0164.

With `NC1(C(=O)N[C@@H](CCO)c2ccc(Cl)cc2)CCN(c2ncnc3[nH]ccc23)CC1` [Capivasertib] + CC(C)n1c(=O)n(C)c2cnc3cc(F)c(-c4ccc(OCCCN5CCCCC5)nc4)cc3c21 [AZD1390] (first compound max 10 µM, 7x7, partner max 0.3 µM), the Bliss excess in experiment [1] was -0.0543; in experiment [2], -0.0598; in [3], -0.0206; in [4], -0.0361; in [5], -0.0296; in experiment [6] it was -0.0666. Besides, the Bliss excess in experiment [7] was -0.0451; in [8], -0.0645; in experiment [9], -0.0083; in experiment [10] it was -0.0657; in experiment [11], -0.0622; in experiment [12], -0.0471. Besides, the Bliss excess in experiment [13] was -0.0563; in [14], -0.0311; in [15] it was -0.0502; in experiment [16], -0.0696; in [17] it was -0.0596; in experiment [18] it was -0.0334. Further, the Bliss excess is -0.033 in experiment [19] and -0.0393 in [20].

Consider `NC1(C(=O)N[C@@H](CCO)c2ccc(Cl)cc2)CCN(c2ncnc3[nH]ccc23)CC1` [Capivasertib] + CCN(CCO)CCCOc1ccc2c(Nc3cc(CC(=O)Nc4cccc(F)c4)[nH]n3)ncnc2c1 [AZD2811] (first compound max 10 µM, 7x7, partner max 1 µM), for which the Bliss excess in [1] was 0.0798; in experiment [2], -0.0485; in experiment [3], 0.045; in experiment [4], -0.0156; in [5], -0.0094; in experiment [6] it was 0.0005. Also, the Bliss excess in experiment [7] is -0.0703; in experiment [8], -0.0421; in [9] it was -0.0189; in [10] it was 0.0008; in experiment [11], 0.0388; in experiment [12] it was 0.002. Besides, the Bliss excess in experiment [13] is -0.0137; in [14] it was 0.0065; in [15] it was -0.0817; in [16] it was 0.0184; in experiment [17], -0.0137; in experiment [18] it was 0.0228. Besides, the Bliss excess in experiment [19] was -0.0096; in experiment [20], -0.0436.
